Laboratory results published in PubChem BioAssay (NCI).
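Interpolation was linear, between the two tested concentrations surrounding the appropriate level; five concentrations were tested over 48 hours in 96-well plates. GI50: concentration for 50% inhibition of growth. TGI is the concentration that stops growth completely.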

Key:
Assay in all cases: NCI anticancer screen, dose series, 48 h
[1] = system: NCI-H23 lung
[2] = system: KM12 colon
[3] = system: MCF7 breast
[4] = system: SF-295 CNS
[5] = system: M14 melanoma
[6] = system: HOP-62 NSCLC
[7] = system: SW-620 colon
[8] = system: 786-0 renal
[9] = system: TK-10 renal
[10] = system: NCI/ADR-RES ovarian

SMILES: OCC1OC(n2cnc3c(N/N=C\c4ccccn4)ncnc32)C(O)C1O (stereo not drawn)
- GI50 [1]: 0.476 µM
- TGI [1]: > 100 µM
- GI50 [2]: 0.434 µM
- TGI [2]: > 100 µM
- GI50 [3]: 0.122 µM
- TGI [3]: > 100 µM
- GI50 [4]: 0.936 µM
- TGI [4]: 16.5 µM
- GI50 [5]: 0.426 µM
- TGI [5]: 3.89 µM
- GI50 [6]: 0.289 µM
- TGI [6]: 2.14 µM
- GI50 [7]: 0.422 µM
- TGI [7]: > 100 µM
- GI50 [8]: 0.256 µM
- TGI [8]: 1.01 µM
- GI50 [9]: 0.159 µM
- TGI [9]: > 100 µM
- GI50 [10]: 0.185 µM
- TGI [10]: 11.7 µM

SMILES: O=C1c2ccccc2-c2cc([N+](=O)[O-])c([N+](=O)[O-])cc21
- TGI [1]: 3.25 µM
- TGI [2]: 3.51 µM
- TGI [3]: 2.4 µM
- TGI [4]: 3.08 µM
- TGI [5]: 3.43 µM
- TGI [6]: 3.13 µM
- TGI [7]: > 21.1 µM
- TGI [8]: 5.86 µM
- TGI [9]: 2.81 µM
- TGI [10]: 9.64 µM

SMILES: NNC(=O)CS(=O)(=O)Nc1ncccn1
- TGI [1]: > 100 µM
- TGI [2]: > 100 µM
- TGI [3]: > 100 µM
- TGI [4]: > 100 µM
- TGI [5]: > 100 µM
- TGI [6]: > 100 µM
- TGI [7]: > 100 µM
- TGI [8]: > 100 µM
- TGI [9]: > 100 µM
- TGI [10]: > 100 µM

SMILES: CC(C)C[C@H](NC(=O)CNC(=O)c1cc(Cl)ccc1Cl)B1OC(=O)CC(CC(=O)O)(C(=O)O)O1 (stereo partly drawn)
- GI50 [1]: 0.048 µM
- TGI [1]: 6.44 µM
- GI50 [2]: 0.105 µM
- TGI [2]: 0.607 µM
- GI50 [3]: 0.0391 µM
- TGI [3]: 43.1 µM
- GI50 [4]: 0.071 µM
- TGI [4]: 1.14 µM
- GI50 [5]: 0.034 µM
- TGI [5]: 0.143 µM
- GI50 [6]: 0.124 µM
- TGI [6]: 1.05 µM
- GI50 [7]: 0.0364 µM
- GI50 [8]: 0.0655 µM
- GI50 [9]: 0.0287 µM
- TGI [9]: 0.373 µM
- GI50 [10]: 0.368 µM
- TGI [10]: > 100 µM

SMILES: COc1cc(N2C(=O)[C@H](O)C2c2ccc(SC)cc2)cc(OC)c1OC (stereo partly drawn)
- GI50 [1]: 0.0191 µM
- TGI [1]: > 100 µM
- GI50 [2]: < 0.01 µM
- TGI [2]: > 100 µM
- GI50 [3]: < 0.01 µM
- TGI [3]: > 100 µM
- GI50 [4]: < 0.01 µM
- TGI [4]: 26.1 µM
- GI50 [5]: < 0.01 µM
- TGI [5]: 0.0198 µM
- GI50 [6]: < 0.01 µM
- TGI [6]: > 100 µM
- GI50 [7]: < 0.01 µM
- TGI [7]: > 100 µM
- GI50 [8]: < 0.01 µM
- TGI [8]: 55.8 µM
- GI50 [9]: 23.2 µM
- TGI [9]: > 100 µM
- GI50 [10]: 0.0166 µM
- TGI [10]: > 100 µM

SMILES: CN1C(=O)N(C)C2C1NN=c1s/c(=C\c3ccc(C(F)(F)F)cc3)c(=O)n12 (stereo not drawn)
- GI50 [1]: 2.49 µM
- TGI [1]: > 100 µM
- GI50 [2]: 0.705 µM
- TGI [2]: > 100 µM
- GI50 [3]: 0.392 µM
- TGI [3]: > 100 µM
- GI50 [4]: 0.581 µM
- TGI [4]: 14.6 µM
- GI50 [5]: 1.36 µM
- TGI [5]: > 100 µM
- GI50 [6]: 1.31 µM
- TGI [6]: 20.1 µM
- GI50 [7]: 0.659 µM
- TGI [7]: > 100 µM
- GI50 [8]: 3.82 µM
- TGI [8]: > 100 µM
- GI50 [9]: 4.06 µM
- TGI [9]: 75.9 µM
- GI50 [10]: 0.696 µM
- TGI [10]: 37.3 µM

SMILES: CN(C)CCCn1c(=O)c2ccccc2c2ccccc21
- GI50 [1]: 17.6 µM
- TGI [1]: 46 µM
- GI50 [2]: 15.5 µM
- TGI [2]: 66.7 µM
- GI50 [3]: 7.24 µM
- TGI [3]: > 100 µM
- GI50 [4]: 7.69 µM
- TGI [4]: 32.8 µM
- GI50 [5]: 14.4 µM
- TGI [5]: 29.6 µM
- GI50 [6]: 20.5 µM
- TGI [6]: > 100 µM
- GI50 [7]: 6.27 µM
- TGI [7]: 53.3 µM
- GI50 [8]: 12.5 µM
- TGI [8]: > 100 µM
- GI50 [9]: 20.3 µM
- TGI [9]: > 100 µM
- GI50 [10]: 10.9 µM
- TGI [10]: > 100 µM

SMILES: OCc1ccc(N2CCCC2c2ccccc2)cc1Cl (stereo not drawn)
- GI50 [1]: 5.51 µM
- TGI [1]: 30 µM
- GI50 [2]: 4.17 µM
- TGI [2]: 19.4 µM
- GI50 [3]: 1.42 µM
- TGI [3]: 13.2 µM
- GI50 [4]: 2.34 µM
- TGI [4]: 7.77 µM
- GI50 [5]: 5.24 µM
- TGI [5]: 21.3 µM
- GI50 [6]: 3.69 µM
- TGI [6]: 15.8 µM
- GI50 [7]: 2.8 µM
- TGI [7]: 27.7 µM
- GI50 [8]: 11.5 µM
- TGI [8]: 28.4 µM
- GI50 [9]: 0.195 µM
- TGI [9]: 1.27 µM
- GI50 [10]: 3.54 µM
- TGI [10]: 17.7 µM

SMILES: Fc1ccc(/C=N/n2c(-c3ccc(F)c(Cl)c3)nn(CNc3ccccc3C(F)(F)F)c2=S)cc1
- GI50 [1]: 61.7 µM
- TGI [1]: > 100 µM
- GI50 [2]: 29.3 µM
- TGI [2]: > 100 µM
- GI50 [3]: 30.7 µM
- TGI [3]: > 100 µM
- GI50 [4]: 42.6 µM
- TGI [4]: > 100 µM
- GI50 [5]: 43.1 µM
- TGI [5]: > 100 µM
- GI50 [6]: > 100 µM
- TGI [6]: > 100 µM
- GI50 [7]: 86.2 µM
- TGI [7]: > 100 µM
- GI50 [8]: 75.4 µM
- TGI [8]: > 100 µM
- GI50 [9]: 38.7 µM
- TGI [9]: > 100 µM
- GI50 [10]: 41.2 µM
- TGI [10]: > 100 µM

SMILES: COc1ccc(-c2[nH]c3ccccc3c2-c2ccc(OC)cc2)cc1
- GI50 [1]: 6.26 µM
- TGI [1]: 26.2 µM
- GI50 [2]: 2.48 µM
- TGI [2]: 6.64 µM
- GI50 [3]: 2.87 µM
- TGI [3]: 12.4 µM
- GI50 [4]: 3.33 µM
- TGI [4]: 14 µM
- GI50 [5]: 3.9 µM
- TGI [5]: 14.8 µM
- GI50 [6]: 10.2 µM
- TGI [6]: 26.2 µM
- GI50 [7]: 4.53 µM
- TGI [7]: 36.8 µM
- GI50 [8]: 2.95 µM
- TGI [8]: 7.64 µM
- GI50 [9]: 12.6 µM
- TGI [9]: 41 µM
- GI50 [10]: 3.82 µM
- TGI [10]: 15 µM

SMILES: O=C(/C=C/c1ccccc1)CCN1CCOCC1
- TGI [1]: 31.8 µM
- TGI [2]: 18.6 µM
- TGI [3]: 24.1 µM
- TGI [4]: 38.8 µM
- TGI [5]: 29 µM
- TGI [6]: 64 µM
- TGI [7]: 16.5 µM
- TGI [8]: 18.8 µM
- TGI [9]: 26.7 µM
- TGI [10]: 55.5 µM
